Laboratory results published in publication PMC6021032, “Antimycobacterial activity of nitrogen heterocycles derivatives: 7-(pyridine-4-yl)-indolizine derivatives. Part VII^8–12” (Journal of Enzyme Inhibition and Medicinal Chemistry, 2017).
Read-outs that look alike come from different tables or passages of the source.

Experiments:
[1] = system: Mycobacterium tuberculosis H37Rv; assay: Primary screen (Cycle 1): MIC, IC50, IC90 under aerobic conditions; type: cell-based
[2] = Caco-2 permeability assay; conditions: human, Caco-2
Description: The Caco-2 cell layer permeability assay is widely used as a more predictive in vitro model of absorption through the intestinal epithelium. […] For B–A permeability, test compound was added to the basal side of the Caco-2 monolayer and the transport of the compound to the apical side monitored. The amount of compound present in each compartment was quantified by LC-MS/MS.
recovered and analyzed by LC-MS/MS.
3.2. Caco-2 Permeability Assay
feeding at 2-day intervals.
Each experiment included the
contained transport buffer at pH 7.4.
3.3. Cytochrome P450 Inhibition Assay
and was < 0.2%. Samples were run in duplicate. Compounds were incubated with human liver

[3] = target: T1, CYP3A4 (Homo sapiens, UniProt P08684); assay: Cytochrome P450 inhibition in human liver microsomes; type: in vitro ADME
T1 construct: Compounds were incubated with human liver; from tissue; host or cells: human liver microsomes
T1 sequence (P08684 whole entry): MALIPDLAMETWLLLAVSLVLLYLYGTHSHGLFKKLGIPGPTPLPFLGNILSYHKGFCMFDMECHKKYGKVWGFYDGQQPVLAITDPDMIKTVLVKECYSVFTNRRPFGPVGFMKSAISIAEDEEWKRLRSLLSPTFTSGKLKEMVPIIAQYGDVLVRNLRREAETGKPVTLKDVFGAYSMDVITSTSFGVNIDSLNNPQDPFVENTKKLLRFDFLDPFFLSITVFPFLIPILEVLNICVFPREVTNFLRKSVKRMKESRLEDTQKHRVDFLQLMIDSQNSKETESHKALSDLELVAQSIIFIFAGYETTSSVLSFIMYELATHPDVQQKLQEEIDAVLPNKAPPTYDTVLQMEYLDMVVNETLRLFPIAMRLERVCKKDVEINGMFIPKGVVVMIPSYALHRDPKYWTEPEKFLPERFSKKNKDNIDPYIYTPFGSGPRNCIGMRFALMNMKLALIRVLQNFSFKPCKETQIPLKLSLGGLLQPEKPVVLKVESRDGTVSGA

[4] = in vitro; conditions: human
Text: The stability of compound is expressed as a function of time[41]^,[42]
3.4. In vitro Microsomal Stability Assay
compound to detect NADPH-free degradation. Verapamil and dextromethorphan were
included as control compounds.

[5] = Mycobacterium tuberculosis, M. tuberculosis H37Rv, aerobic conditions, primary screen

CCOC(=O)c1cc(C(=O)c2ccc(Cl)cc2)n2ccc(-c3cc[n+](CC(=O)c4ccc(C)cc4)cc3)cc12 [Compound 6i]
MIC ([1]; M. tuberculosis H37Rv, aerobic conditions, primary screen): 8.0 µM
MIC ([1]; MIC value taken from the first MIC assay): 8 µM
IC50 [1, 5]: 7.2 µM
IC90 [1, 5]: 8.2 µM
MIC [1, 5]: 8 µM
Papp B→A [2]: 1.3 ×10⁻⁶ cm/s
efflux ratio [2]: 1.7
IC50 CYP3A4-Midazolam ([3]; probe substrate midazolam): moderate inhibition
IC50 ([3]; probe substrate midazolam, read-out: IC50 CYP3A4-Midazolam): 0.48 µM
IC50 CYP3A4-Testosterone ([3]; probe substrate testosterone): high inhibition
IC50 ([3]; probe substrate testosterone, read-out: IC50 CYP3A4-Testosterone): 0.081 µM
NADPH-dependent CLint ([4]; s9): very highly cleared
microsomal CLint at 1 μM ([4]; s9, NADPH-dependent CLint): 369 µL/min/mg
half-life at 1 μM ([4]; s9, NADPH-dependent T1/2): 6.3 min
microsomal CLint at 1 μM ([4]; s9, NADPH-free CLint): < 12.8 µL/min/mg
half-life at 1 μM ([4]; s9, NADPH-free T1/2): > 180 min
